# In US12324790B1, “Preparation method and application of micelle preparation containing thymol and derivative thereof” (Nanjing Mucosa Tech Co., Ltd., priority 2024, dated 2025):
# Key:
# [1] = States of preparations observed with the naked eyes (solubilization); type: physicochemical; settings: water, without TPGS, apparent concentration 2 mg/ml
# Method: A surfactant TPGS was selected for solubilization. Preparation method: 40 mg of THY was weighed and placed in a beaker, added with a certain amount of water and TPGS and magnetically stirred at room temperature for 24 h. In micelle preparations 2-8, mass ratios of THY to TPGS were 2:1, 1:1, 1:2.5, 1:5, 1:7, 1:10, 1:15, and 1:20, respectively.
# 40 mg of THY-Tos was weighed and placed in a beaker, and added with a certain amount of water and TPGS. For Preparations 2 to 5, the mass ratios of THY-Tos to TPGS were 1:1, 1:7, 1:10, and 1:15, respectively. The above micelle preparations were magnetically stirred for 24 h to obtain the final products.
# oral ulcer rats = experiment: Pharmacodynamic study in NaOH-induced oral ulcer rats; set-up: species or system SD rats; settings: rat, in vivo
# Text: After 3 days of adaptive feeding, each rat was anesthetized and fixed on an operating table, the labial mucosa of the SD rat was dried with sterile cotton balls, and further sterile cotton balls were used for moisture isolation. A 3 mm×3 mm NaOH crystal was placed on the labial mucosa, and then removed after being maintained for 30 s. A treated area was wiped with sterile cotton balls containing normal saline to remove residual NaOH. […]
# An area method was used to macroscopically evaluate the oral ulcer area, a maximum transverse diameter and longitudinal diameter of the ulcer were measured by vernier calipers, which were marked as d1 and d2, respectively, and a ulcer area was S=π×d1×d2×¼ (π=3.14). […]
# The analysis was performed by t-test, and normally distributed quantitative data were expressed as mean±standard deviation (X, ±S), one-way ANOVA and LSD methods were used for pairwise comparison, and the Wilcoxon rank-sum test was used when the ANOVA conditions were not met. […]
smiles,measurement,setting,value
Cc1ccc(C(C)C)c(OC(=O)CCC(=O)Oc2c(C)c(C)c3c(c2C)CC[C@@](C)(CCC[C@H](C)CCC[C@H](C)CCCC(C)C)O3)c1 [THY-Tos],solubility (in words),[1],poor solubility
same,efficacy on an animal-based oral ulcer model compared with THY in combination with vitamin E,oral ulcer rats,not significantly different
